Consider 14 compounds from US8389739B1, “Modulators of retinoid-related orphan receptor gamma” (Orphagen Pharmaceuticals, priority 2006, dated 2013).

In assay [1] the target is T1, mRORγ LBD (Mus musculus, UniProt P51450).
T1 construct: made in house; host or cells: Sf9 insect cells, baculovirus; cleared lysate used directly
T1 sequence (P51450 251-516): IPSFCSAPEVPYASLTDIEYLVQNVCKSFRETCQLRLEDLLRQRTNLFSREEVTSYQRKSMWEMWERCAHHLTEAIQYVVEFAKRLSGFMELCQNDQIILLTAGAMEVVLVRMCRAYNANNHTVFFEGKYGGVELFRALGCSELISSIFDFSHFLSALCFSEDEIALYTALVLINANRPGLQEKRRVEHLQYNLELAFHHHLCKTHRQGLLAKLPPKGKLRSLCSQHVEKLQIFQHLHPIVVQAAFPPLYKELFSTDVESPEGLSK
Kind of assay: Biochemical assay, coregulatory peptide recruitment to GST-RORγ LBD (FRET). The source says: GST-RORγ was generated by subcloning the RORγ-LBD into pET-41a, a vector which expresses GST fusion proteins in bacteria.
The cloning steps for GST-RORγ were as follows. The mRORγ LBD was excised from Gal4-mRORγ (see above for cloning steps) at BamHI and HindIII sites of Sequence 1 and cloned into the corresponding sites of pET-41a(+) (EMD Biosciences, San Diego, Calif.). A GST-mRORγ fragment was then excised from pET-41a(+) at XbaI and XhoI sites and cloned into a pcDNA3.1vector (Invitrogen, Carlsbad, Calif.) restricted at NheI and XhoI sites. Plasmid GST-mRORγ-pcDNA3.1 was used as a PCR template to generate a GST-mRORγ fragment that was later cloned into pENTR/D-TOPO vector (Invitrogen, Carlsbad, Calif.) by standard cloning techniques recommended by the manufacturer of the vector. The nucleotide sequence of GST-mRORγ is shown below:
For baculoviral expression of RORγ, the cDNA fragment of GST-RORγ— LBD, was subcloned from pET-41a into the pENTR/D-TOPO vector using a commercially-available kit (BaculoDirect, Invitrogen). Briefly, GST-RORγ carried by pENTR/D-TOPO was transfected into mono-layer Sf9 cells (8×10^5/well in 6-well plates) by Cellfectin (Invitrogen). Sf9 cells were incubated at 27° C. in a non-humidified incubator for 72 hours. Cell media was collected as P1 viral stock and used to further infect Sf9 cells to generate P2 and P3 virus. […] A plaque assay was performed to determine the titer of P3 virus and to isolate single plaques. P4 virus was generated from a single plaque and propagated on a larger scale.
Adherent SF9 cells were infected with baculovirus carrying GST-RORγ and were cultured for 72 hours. Sf9 cell were then subject to a brief sonication in a lysis buffer (20 mM phosphate, pH 6.8, 50 mM KCl, 50 mM NaCl, 0.5 mM EDTA, 50% glycerol, 0.001% NP-40 and 1 mM DTT) and centrifuged at 3000 rpm for 15 minutes. […] Cleared cell lysate was stored at −70° C. and is directly utilized in the coregulatory peptide recruitment assay.
The labeled probes anti-GST-APC and SA-RPE were purchased from Prozyme (San Leandro, Calif.). Compounds were added directly from a DMSO solution to a final concentration of 1-2% DMSO. Fluorescence was measured on a Wallac Victor 2 V plate reader equipped with a 670/40 nm filter (Omega Optical, Brattleboro, Vt.) for APC emission (Channel A) and a 600/25 bandpass filter for monitoring the RPE emission (Channel B).

For assay [2], the target named is T2, mRORγ (Mus musculus, UniProt P51450).
T2 construct: expressed in transfected cells; host or cells: CHO cells, transient transfection
As to the kind of experiment: Transcriptional assay, Gal4-mRORγ with luciferase reporter in CHO cells. It counts as cell-based. How it is done: The complete Gal4-mRORγ nucleotide sequence is shown below:
(§1) A firefly luciferase reporter gene for Gal4 DBD hybrid receptors, such as Gal4-RORγ, contains five copies of the Gal4 17-mer response element in its promoter and the coding sequence for firefly luciferase (pG5-luc, Promega). CHO (Chinese Hamster Ovary) cells were cultured in Ham's F12 medium supplemented with 10% fetal calf serum (Gemini Biologicals), 10 μg/ml penicillin and streptomycin, and were maintained in a humidified 37° C. incubator (Thermo Electron, Steri-Cycle) with 5% CO2. 24 hours before transfection, cells were plated in T175 flasks (5×10^6 cells/flask) or T75 flasks (1.7×10^6 cells/flask). Transient transfection of CHO cells was performed using TransIT-CHO reagents (Minis, Madison, Wis.) with a mixing ratio of 2:6:1 between plasmid DNA (in μg), TransIT-CHO (in μl) and CHO-mojo (in μl).
(§2) Plates are maintained at 37° C. in a humidified atmosphere with 7% CO2 overnight. Four (4) hours after cell seeding, compounds dissolved in DMSO at 10 mM were added to cells at final concentrations of 20 micromolar (μM) to 20 nanomolar (nM) in 0.2% DMSO in triplicate plates. Approximately 40 hours later, cytotoxicity in the assay well was characterized by addition of the dye resazurin (O'Brien, Wilson et al. 2000) to a final concentration of 3 μM. […] Percent viability was determined as 2 hour fluorescence, minus background at t=0 hours, normalized to DMSO controls. For detection of luciferase activity, media was removed from plates after the measurement of resazurin conversion, and SteadyLite luciferase reagent (Perkin-Elmer) was added (30 μl/well). Luminescence is detected with a Victor 2-V plate reader (Perkin-Elmer) and normalized to luciferase activity of DMSO control wells alone.
Background: In a reporter assay the amount or activity of a reporter protein is the signal.

Assay [3] concerns the target T3, mLXRα (Liver X receptor alpha) (Mus musculus, UniProt Q9Z0Y9).
T3 construct: 172-455; expressed in transfected cells; host or cells: CHO cells, transient transfection
T3 sequence (Q9Z0Y9 172-445 limits assumed): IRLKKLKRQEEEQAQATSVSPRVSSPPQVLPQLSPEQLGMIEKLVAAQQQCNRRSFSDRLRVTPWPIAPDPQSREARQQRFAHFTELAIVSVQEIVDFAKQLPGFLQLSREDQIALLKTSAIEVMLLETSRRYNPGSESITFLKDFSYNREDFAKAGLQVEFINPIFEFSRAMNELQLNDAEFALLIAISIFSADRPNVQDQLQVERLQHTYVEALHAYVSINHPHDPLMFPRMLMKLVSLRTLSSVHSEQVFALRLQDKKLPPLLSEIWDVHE
As to the kind of experiment: Transcriptional assay of LXRα (Gal4-LXRα hybrid). It counts as cell-based. How it is done: as §1, §2
A transcriptional assay for LXRα, using a Gal4-LXRα hybrid, was implemented in order to compare RORγ ligand potencies. In addition to LXRα, transcriptional assays for a number of other major nuclear receptors were developed.

[4] abbreviates: Table 2, agonists, biotinylated peptide K, 50% of estimated maximum FRET signal, read-out: EC50 in micromolar at mRORγ Biochemical.
Setting [5] is: Table 2, agonists, antagonist OR-376 (1.5 μM) added to reduce basal transcriptional activity, read-out: EC50 in micromolar at mRORγ Transcriptional.

Where two headings read alike, the source gives them in different places.

T2 sequence (P51450 with tags, fused parts or gaps): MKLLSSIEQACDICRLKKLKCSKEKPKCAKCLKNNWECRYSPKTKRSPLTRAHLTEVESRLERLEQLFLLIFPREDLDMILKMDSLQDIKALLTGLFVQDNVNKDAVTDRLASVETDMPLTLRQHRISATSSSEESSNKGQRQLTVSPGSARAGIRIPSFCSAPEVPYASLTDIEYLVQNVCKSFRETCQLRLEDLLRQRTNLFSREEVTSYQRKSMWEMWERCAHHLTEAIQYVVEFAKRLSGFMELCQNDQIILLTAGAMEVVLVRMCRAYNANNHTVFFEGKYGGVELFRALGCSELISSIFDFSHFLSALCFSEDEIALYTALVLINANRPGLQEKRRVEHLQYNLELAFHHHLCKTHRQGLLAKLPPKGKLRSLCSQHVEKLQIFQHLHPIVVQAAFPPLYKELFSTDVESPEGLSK

For `C[C@@H]1CC[C@@]2(OC1)O[C@H]1C[C@H]3[C@@H]4CC[C@H]5C[C@@H](O)CC[C@]5(C)[C@H]4C(=O)[C@@H](O)[C@]3(C)[C@H]1[C@@H]2C` [OR-345, 5α, 20α, 22α, 25D-SPIROSTAN-3β, 12β-DIOL-11-ONE], the EC50 came out at 12.7 µM in assay [1] (Table 3, peptide K and 1 μM OR-942, inhibition of the OR-942 baseline by 50%, read-out: Assay EC50 in micromolar biochemical); 5 µM in assay [2] (Table 3, steroidal antagonists, read-out: Assay EC50 in micromolar transcriptional).
On to `CC(CCC(=O)O)C1CCC2C1CCC1C3CCC(O)CC3C(O)CC21` (centres unmarked) [OR-412, 4-(3,6-Dihydroxy-hexadecahydro-cyclopenta[a]phenanthren-17-yl)-pentanoic acid], for which the EC50 in assay [1] (setting [4]) is over 100 µM; in assay [2] (setting [5]) it was over 20 µM.
On to `COC(=O)CCC(C)C1CCC2C3CC(O)C4CC(O)CCC4(C)C3CCC12C` (centres unmarked) [OR-942, 4-(3,6-Dihydroxy-10,13-dimethyl-hexadecahydro-cyclopenta[a]phenanthren-17-yl)-pentanoic acid methyl ester], for which the EC50 is 4 µM in assay [1] (GST-RORγ and peptide K, in the presence of antagonist T0901317 (FIG. 5), read-out: estimated EC50 in biochemical assay, shifted by antagonist); 0.4 µM in assay [1] (GST-RORγ and peptide K, without T0901317 (FIG. 5), read-out: estimated EC50 in biochemical assay); 0.12 µM in assay [1] (setting [4]); 1.5 µM in assay [2] (setting [5]). The “activation of RORγ transcriptional activity” value in assay [2] (in the presence of one micromolar antagonist T0901317, CHO cells (FIG. 4A)) is “approximately 8 fold”.
Consider `CCN(c1ccc(C(OC)(C(F)(F)F)C(F)(F)F)cc1)S(=O)(=O)c1ccccc1` [OR-1030, N-Ethyl-N-[4-(2,2,2-trifluoro-1-methoxy-1-trifluoromethyl-ethyl)-phenyl]-benzenesulfonamide], for which the EC50 in assay [1] (Table 1, mRORγ and peptide K1, read-out: Assay EC50 in micromolar at mRORγ Biochemical) is over 100 µM; in assay [1] (Table 7, taken from Table 1 (peptide K1), read-out: Assay EC50 in micromolar at mRORγ Biochemical), over 100 µM; in assay [3] (Table 7, no unit printed for this column (b114 gives 1.5 μM for OR-1050), read-out: Transcriptional Assay of LXRα EC50) it was over 100 µM; in assay [2] (Table 1, antagonists, inhibition of basal Gal4-mRORγ transcription in CHO cells, read-out: Assay EC50 in micromolar at mRORγ Transcriptional), over 20 µM; in assay [2] (Table 7, taken from Table 1, read-out: Assay EC50 in micromolar at mRORγ Transcriptional), over 20 µM. Moreover, in assay [3], the maximum response (Emax) (commonly the size of the effect at its maximum, as opposed to the concentration needed) is under 5%.
With `CCN(c1ccc(C(O)(C(F)(F)F)C(F)(F)F)cc1)S(=O)(=O)c1ccccc1` [OR-1031, N-Ethyl-N-[4-(2,2,2-trifluoro-1-hydroxy-1-trifluoromethyl-ethyl)-phenyl]-benzenesulfonamide], the EC50 was 3.5 µM in assay [1]; 1.4 µM in assay [3]; 1.4 µM in assay [2] (Assay EC50 in micromolar at mRORγ Transcriptional, Table 1, antagonists, inhibition of basal Gal4-mRORγ transcription in CHO cells); 1.4 µM in assay [2] (Assay EC50 in micromolar at mRORγ Transcriptional, Table 7, taken from Table 1). In assay [3], this compound had an Emax of over 80%.
`CC(CCCO)C1CCC2C3CC(O)C4CC(O)CCC4(C)C3CCC12C` (centres unmarked) [OR-12863, 17-(4-Hydroxy-1-methyl-butyl)-10,13-dimethyl-hexadecahydro-cyclopenta[a]phenanthrene-3,6-diol]: the EC50 in assay [1] (setting [4]) was 0.67 µM; in assay [2] (setting [5]) it was 4.1 µM.
The matching figures for `COCCCC(C)C1CCC2C3CC(O)C4CC(O)CCC4(C)C3CCC12C` (centres unmarked) [OR-12864, 17-(4-Methoxy-1-methyl-butyl)-10,13-dimethyl-hexadecahydro-cyclopenta[a]phenanthrene-3,6-diol]: 0.23 µM and 6 µM.
The matching figures for `CC(CCC(C)(C)O)C1CCC2C3CC(O)C4CC(O)CCC4(C)C3CCC12C` (centres unmarked) [OR-12865, 17-(4-Hydroxy-1,4-dimethyl-pentyl)-10,13-dimethyl-hexadecahydro-cyclopenta[a]phenanthrene-3,6-diol]: 0.21 µM and 8.3 µM.
As for `COC(C)(C)CCC(C)C1CCC2C3CC(O)C4CC(O)CCC4(C)C3CCC12C` (centres unmarked) [OR-12866, 17-(4-Methoxy-1,4-dimethyl-pentyl)-10,13-dimethyl-hexadecahydro-cyclopenta[a]phenanthrene-3,6-diol], the EC50 in assay [1] (setting [4]) is 0.14 µM; in assay [2] (setting [5]) it was 0.56 µM.
Take `CNC(=O)CCC(C)C1CCC2C1CCC1C3CCC(O)CC3C(O)CC21` (centres unmarked) [OR-12867, 4-(3,6-Dihydroxy-hexadecahydro-cyclopenta[a]phenanthren-17-yl)-pentanoic acid methylamide]: the EC50 in assay [2] (setting [5]) is over 20 µM.
For `CC(CCC(=O)N(C)C)C1CCC2C3CC(O)C4CC(O)CCC4(C)C3CCC12C` (centres unmarked) [OR-12868, 4-(3,6-Dihydroxy-10,13-dimethyl-hexadecahydro-cyclopenta[a]phenanthren-17-yl)-pentanoic acid dimethylamide], the EC50 in assay [1] (setting [4]) was 0.56 µM; in assay [2] (setting [5]), 5.2 µM.
In the case of `CC(CCC(=O)N1CCCCC1)C1CCC2C1CCC1C3CCC(O)CC3C(O)CC21` (centres unmarked) [OR-12869, 4-(3,6-Dihydroxy-hexadecahydro-cyclopenta[a]phenanthren-17-yl)-1-piperidin-1-yl-pentan-1-one], the EC50 in assay [2] (setting [5]) is over 20 µM.
On to `CC(=O)CCC(C)C1CCC2C3CC(O)C4CC(O)CCC4(C)C3CCC12C` (centres unmarked) [OR-12870, 5-(3,6-Dihydroxy-10,13-dimethyl-hexadecahydro-cyclopenta[a]phenanthren-17-yl)-hexan-2-one], for which the EC50 in assay [2] (setting [5]) amounted to 4.1 µM.
Consider `CC(O)CCC(C)C1CCC2C3CC(O)C4CC(O)CCC4(C)C3CCC12C` (centres unmarked) [OR-12871, 17-(4-Hydroxy-1-methyl-pentyl)-10,13-dimethyl-hexadecahydro-cyclopenta[a]phenanthrene-3,6-diol], for which the EC50 is 0.25 µM in assay [1] (setting [4]) and 8.3 µM in assay [2] (setting [5]).
